Measurements reported in patent US8835631B2, “Therapeutic agent for cerebral infarction” (Mitsubishi Tanabe Pharma Corporation, priority 2007, dated 2014).

What was measured:
[1] = Evaluation of bioavailability in rat; type: in vivo, male SD(IGS) rats; settings: plasma; for AUC0-last / AUC0-∞ / Cmax at 5 min / Cmax: Mean + SD; for Cmax at 5 min / bioavailability / Cmax: male, SD(IGS); for Cmax at 5 min: iv, read-out: Cmax (C5 min, plasma concentration at 5 min after administration); for bioavailability: oral, 3 mg/kg p.o. vs 3 mg/kg i.v., F = (AUC0-∞,p.o./AUC0-∞,i.v.,mean) × (Dosei.v./Dosep.o.) × 100; for Cmax: po, read-out: Cmax
Protocol: Test compound A, test compound B and test compound C were each dissolved in 0.5% aqueous HPMC (hydroxypropyl methylcellulose) solution in the case of oral administration, or in saline in the case of intravenous administration, and they were orally or intravenously administered to male SD(IGS) rats (Charles River Laboratories Japan) by 3 mg/kg. The concentration of unchanged drug in the plasma of each rat was measured, and bioavailability (F(%)) was calculated (F (%)=(AUC0-∞,p.o./AUC0-∞,i.v.,mean)×(Dosei.v./Dosep.o.)×100). The test compound was administered by gavage using an oral gavage needle (p.o.), or administered in the tail vein (i.v.). The blood samples were collected at 15 and 30 min, 1, 2, 4, 6, 8 and 24 hr after administration in the case of oral administration, and 5 and 30 min, 1, 2, 4, 6, 8 and 24 hr after administration in the case of intravenous administration.
The results are shown in Tables 4 (test compound A), 5 (test compound B) and 6 (test compound C). The Cmax values for i.v. in Tables 4, 5 and 6 show plasma concentration at 5 min after administration.

IL-6 = IL-6 production in LPS-administered mouse; type: in vivo, male BALB/c mouse; settings: for IL-6 production in LPS model mouse (in words): 10 mg/kg orally 30 min before LPS; for IL-6 production (%): 10 mg/kg orally 30 min before LPS 500 μg/kg i.p., plasma 90 min after LPS, ratio to group without test compound
Protocol: (§1) LPS (lipopolysaccharide, derived from E. coli 0111:B4, Sigma, 500 μg/kg) was intraperitoneally administered to male BALB/c mouse (Charles River Laboratories Japan). After 90 min after LPS administration, the blood was taken under anesthesia, and centrifuged to collect plasma. TNF-α was measured using an Immunoassay Kit (R&D Systems) and IL-10, MCP-1 and IL-6 were measured using an Immunoassay Kit (BIOSOURCE). Test compound A, the compound synthesized in Example 3 (test compound B) and the compound synthesized in Example 7 (test compound C) were dissolved in saline, and the mixture was orally administered at 10 mg/kg 30 min before LPS administration. As shown in the Tables, the effect of each test compound on respective […] cytokines was calculated as the ratio of each cytokine concentration in the blood of the group administered with each test compound to each cytokine concentration in the blood of the group free of administration of each test compound.

[2] = Evaluation of intracerebral transitivity in rat; type: in vivo, SD(IGS) rats; settings: for Kp at 1 h / Kp at 4 h: SD(IGS), brain, po, 3 mg/kg orally, read-out: Kp value (ratio of plasma concentration and intracerebral concentration); for Kp at 1 h: 1 hr after administration; for Kp at 4 h: 4 hr after administration; for intracerebral transitivity (in words): orally, test compound A 30 mg/kg, test compounds B and C 3 mg/kg
Protocol: The test compound A dissolved in 0.5% aqueous HPMC solution was orally administered at 30 mg/kg, and test compound B and test compound C dissolved in 0.5% aqueous HPMC solution were each orally administered at 3 mg/kg to SD(IGS) rats (Charles River Laboratories Japan). At 1 hr and 4 hr after the administration of the test compound, blood samples were collected, and the brain (cerebral•cerebellum) was isolated. The plasma concentration and intracerebral concentration of each test compound were measured, and the ratio (Kp value) thereof was calculated, based on which the intracerebral transitivity was evaluated.

MCP-1 = MCP-1 production in LPS-administered mouse; type: in vivo, male BALB/c mouse; settings: for MCP-1 production in LPS model mouse (in words): 10 mg/kg orally 30 min before LPS; for MCP-1 production (%): 10 mg/kg orally 30 min before LPS 500 μg/kg i.p., plasma 90 min after LPS, ratio to group without test compound
Protocol: as §1

IL-10 = IL-10 production in LPS-administered mouse; type: in vivo, male BALB/c mouse; settings: for IL-10 in LPS model mouse (in words): 10 mg/kg orally 30 min before LPS; for IL-10 production (%): Table 1, 10 mg/kg orally 30 min before LPS 500 μg/kg i.p., plasma 90 min after LPS, ratio to group without test compound
Protocol: as §1

TNF-α = TNF-α production in LPS-administered mouse; type: in vivo, male BALB/c mouse; settings: for TNF-α production in LPS model mouse (in words): 10 mg/kg orally 30 min before LPS; for TNF-α production (%): Table 1, 10 mg/kg orally 30 min before LPS 500 μg/kg i.p., plasma 90 min after LPS, ratio to group without test compound
Protocol: as §1

[3] = system: rat middle cerebral artery occlusion-reperfusion model; assay: Cerebral infarction volume in rat middle cerebral artery occlusion-reperfusion model; type: in vivo, male Wistar rats; settings: 10 mg/kg intravenously 30 min after occlusion, reperfusion 90 min after occlusion, brain isolated 24 hr later, TTC stain; FIG. 7
Protocol: The middle cerebral artery of male Wistar rats (Japan Laboratory Animals Inc.) was obstructed with suture (silicon-coated nylon thread), and saline (Vehicle, n=7), test compound A (10 mg/kg, n=6) dissolved in saline, test compound B ([…], n=7) dissolved in saline, and test compound C (10 mg/kg, n=7) dissolved in saline were each intravenously administered in 30 min after occlusion and the artery was reperfused in 90 min after occlusion. The brain was isolated 24 hr later. A 2 mm brain strip was prepared, and the strip was stained with PBS (pH 7.4, 37° C.) containing 1% 2,3,5-triphenyltetrazolium chloride (TTC, Wako Pure Chemical Industries, Ltd.). The cerebral infarction area was measured by image analysis and the cerebral infarction volume was calculated.

IL-1β receptor [4] = settings: non-patent document 6; cited from earlier work
IL-1β receptor [5] = biological target: T1, IL-1β receptor (Homo sapiens, UniProt P14778); settings: clinical trial (Phase II); non-patent document 7; cited from earlier work
T1 sequence (P14778 18-569): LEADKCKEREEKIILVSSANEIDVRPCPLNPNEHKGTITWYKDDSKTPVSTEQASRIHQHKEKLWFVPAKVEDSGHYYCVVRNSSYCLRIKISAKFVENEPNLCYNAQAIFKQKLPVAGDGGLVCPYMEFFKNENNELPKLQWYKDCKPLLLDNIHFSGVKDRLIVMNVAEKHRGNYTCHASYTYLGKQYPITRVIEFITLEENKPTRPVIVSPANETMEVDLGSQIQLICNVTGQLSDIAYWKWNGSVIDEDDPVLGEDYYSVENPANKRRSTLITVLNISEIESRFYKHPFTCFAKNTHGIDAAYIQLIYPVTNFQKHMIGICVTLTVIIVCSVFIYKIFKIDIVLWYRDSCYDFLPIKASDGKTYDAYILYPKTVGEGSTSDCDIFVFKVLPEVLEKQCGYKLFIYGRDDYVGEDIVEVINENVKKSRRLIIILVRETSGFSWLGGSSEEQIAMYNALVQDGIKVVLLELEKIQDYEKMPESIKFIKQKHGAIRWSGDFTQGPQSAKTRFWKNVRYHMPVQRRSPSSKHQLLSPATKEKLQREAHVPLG

| Molecule | AUC0-last ([1]; 3 mg/kg i.v.) | AUC0-∞ ([1]; 3 mg/kg i.v.) | AUC0-last ([1]; 3 mg/kg p.o.) | AUC0-∞ ([1]; 3 mg/kg p.o.) | Cmax at 5 min ([1]; 3 mg/kg i.v.) | bioavailability [1] | Cmax ([1]; 3 mg/kg p.o.) | IL-6 production in LPS model mouse (in words) (IL-6) | Kp at 1 h [2] | Kp at 4 h [2] | intracerebral transitivity (in words) [2] | MCP-1 production in LPS model mouse (in words) (MCP-1) | IL-10 in LPS model mouse (in words) (IL-10) | IL-10 production (%) (IL-10) | TNF-α production in LPS model mouse (in words) (TNF-α) | TNF-α production (%) (TNF-α) | suppression of cerebral infarction volume [3] | further results |
| --- | --- | --- | --- | --- | --- | --- | --- | --- | --- | --- | --- | --- | --- | --- | --- | --- | --- | --- |
| CC(=O)NC1(c2ccc(CN3C[C@@H]4C[C@H]3CN4c3ncccn3)cc2)CC1 [test compound B, N-[1-(4-{[(1S,4S)-5-(pyrimidin-2-yl)-2,5-diazabicyclo[2.2.1]hept-2-yl]methyl}phenyl)cyclopropyl]acetamide] | 1449.8 ± 123.3 ngh/mL | 1464.6 ± 122.3 ngh/mL | 1082.8 ± 171.1 ngh/mL | 1105.7 ± 170.8 ngh/mL | 1600 ± 58.3 ng/mL | 75.5% | 471 ng/mL | suppressed | 0.8 | 1.3 | intracerebrally transferred | suppressed | increased | 350.1% | suppressed | 53.9% | 17.8% | IL-6 production (%) (IL-6; Table 2): 78.7%; MCP-1 production (%) (MCP-1; Table 2): 63.9% |
| recombinant IL-1ra: an IL-1β receptor antagonist (recombinant IL-1ra) |  |  |  |  |  |  |  |  |  |  |  |  |  |  |  |  |  | cerebral ischemic disorder (IL-1β receptor [4]): alleviating action; cerebral ischemic disorder (IL-1β receptor [5]): alleviating effect |
| CC(=O)NC1(c2ccc(CN3CCN(c4ncccn4)CC3)cn2)CC1 [test compound C, N-(1-{5-[{4-(pyrimidin-2-yl)piperazin-1-yl}methyl]pyridin-2-yl}cyclopropyl)acetamide] | 10173.6 ± 3012.9 ngh/mL | 10446.3 ± 2852.3 ngh/mL | 8192.2 ± 3114.3 ngh/mL | 8434.3 ± 2981.5 ngh/mL | 4510 ± 359 ng/mL | 80.7% | 2000 ng/mL | suppressed | 0.8 | 0.9 | intracerebrally transferred | suppressed | increased | 401.4% | suppressed | 50.6% | 43.2% | IL-6 production (%) (IL-6; Table 3): 81%; MCP-1 production (%) (MCP-1; Table 3): 72.1% |
